The target of one data set is T1, Interstitial collagenase (Homo sapiens, UniProt P03956).
T1 sequence (P03956 whole entry): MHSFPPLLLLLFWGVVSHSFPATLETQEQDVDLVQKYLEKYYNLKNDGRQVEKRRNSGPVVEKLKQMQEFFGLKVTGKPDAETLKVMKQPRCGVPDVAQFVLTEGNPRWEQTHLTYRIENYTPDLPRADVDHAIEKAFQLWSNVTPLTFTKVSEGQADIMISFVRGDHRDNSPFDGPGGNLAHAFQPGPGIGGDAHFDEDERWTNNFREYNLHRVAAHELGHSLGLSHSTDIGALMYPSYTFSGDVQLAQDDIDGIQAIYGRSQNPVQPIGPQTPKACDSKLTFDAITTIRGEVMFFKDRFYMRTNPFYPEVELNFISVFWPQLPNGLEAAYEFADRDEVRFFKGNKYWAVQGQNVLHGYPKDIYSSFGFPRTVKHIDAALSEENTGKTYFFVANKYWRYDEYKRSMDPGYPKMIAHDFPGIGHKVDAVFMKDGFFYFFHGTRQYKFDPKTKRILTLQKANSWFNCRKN
Put plainly: Inhibition of recombinant human MMP1 catalytic domain using Mca-Pro-Leu-Gly-Leu-Dpa-Ala-Arg-NH2 as substrate after 10 mins by fluorescence assay.

Data set [1] concerns Mus musculus. Put plainly: Antiinflammatory activity in topically applied oxazolone-induced chronic skin inflammation hairless SKH1 mouse model assessed as decrease in epidermis thickening applied topically for 10 days in combination with oxazolone. It counts as functional, organism-based.
Data set [2] concerns the target T2, Disintegrin and metalloproteinase domain-containing protein 10 (Homo sapiens, UniProt O14672).
T2 sequence (O14672 whole entry): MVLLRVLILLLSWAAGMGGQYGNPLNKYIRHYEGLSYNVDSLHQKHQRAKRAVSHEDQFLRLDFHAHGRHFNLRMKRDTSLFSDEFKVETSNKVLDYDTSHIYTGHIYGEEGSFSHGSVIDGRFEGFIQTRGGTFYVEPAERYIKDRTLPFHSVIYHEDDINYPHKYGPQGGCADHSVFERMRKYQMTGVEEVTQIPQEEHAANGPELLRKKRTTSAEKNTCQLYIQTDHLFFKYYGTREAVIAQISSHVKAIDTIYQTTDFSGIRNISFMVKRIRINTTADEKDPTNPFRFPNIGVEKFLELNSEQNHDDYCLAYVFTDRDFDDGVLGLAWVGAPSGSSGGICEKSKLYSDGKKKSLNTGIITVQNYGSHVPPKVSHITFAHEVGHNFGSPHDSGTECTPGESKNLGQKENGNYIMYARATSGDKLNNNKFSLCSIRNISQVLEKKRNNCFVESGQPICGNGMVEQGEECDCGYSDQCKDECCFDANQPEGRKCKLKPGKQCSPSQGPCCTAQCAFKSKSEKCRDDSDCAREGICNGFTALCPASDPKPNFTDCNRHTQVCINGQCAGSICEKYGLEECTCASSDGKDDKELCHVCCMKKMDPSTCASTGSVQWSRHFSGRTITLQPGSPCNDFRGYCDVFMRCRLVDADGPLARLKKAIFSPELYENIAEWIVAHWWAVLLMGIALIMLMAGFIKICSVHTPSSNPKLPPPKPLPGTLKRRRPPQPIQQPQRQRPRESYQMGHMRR
Put plainly: Inhibition of ADAM10 (unknown origin).

The target of the next data set is Neutrophil collagenase (Homo sapiens, UniProt P22894). Put plainly: Inhibition of MMP8 (unknown origin).
Chain of Neutrophil collagenase (P22894 whole entry): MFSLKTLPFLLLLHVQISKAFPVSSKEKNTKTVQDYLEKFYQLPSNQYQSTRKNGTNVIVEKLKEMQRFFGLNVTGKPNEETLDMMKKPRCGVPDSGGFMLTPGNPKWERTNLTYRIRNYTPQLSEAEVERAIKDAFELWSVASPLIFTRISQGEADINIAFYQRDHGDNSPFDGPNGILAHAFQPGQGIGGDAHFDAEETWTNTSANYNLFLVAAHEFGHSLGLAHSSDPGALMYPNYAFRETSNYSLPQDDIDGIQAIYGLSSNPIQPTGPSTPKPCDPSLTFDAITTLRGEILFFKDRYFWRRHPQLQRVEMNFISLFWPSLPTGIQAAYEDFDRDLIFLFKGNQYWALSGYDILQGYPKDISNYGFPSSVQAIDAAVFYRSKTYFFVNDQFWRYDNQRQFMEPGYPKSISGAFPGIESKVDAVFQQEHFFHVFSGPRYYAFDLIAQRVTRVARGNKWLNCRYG
The nature of data set [3]: Solubility of the compound in propylene glycol/ethanol96 at 30 mg/ml after 24 hrs by UV-spectrometric analysis. It counts as physicochemical. As to conditions: propylene glycol/ethanol96.
Data set [4] can be described thus: Photoirritancy factor, ratio of EC50 for human neonatal keratinocytes under dark condition to EC50 for human neonatal keratinocytes under 5 J/cm2 UV light exposure. The note with it: read-out: Ratio EC50. It counts as toxicity.
In data set [5] the test system is Mus musculus. Put plainly: Antiinflammatory activity in topically applied oxazolone-induced chronic skin inflammation hairless SKH1 mouse model assessed as decrease in skin lesions applied topically for 10 days in combination with oxazolone. It counts as functional, organism-based.
Data set [6] deals with Mus musculus. In words: Antiinflammatory activity in topically applied oxazolone-induced chronic skin inflammation hairless SKH1 mouse model assessed as decrease in TNFalpha secretion applied topically for 10 days in combination with oxazolone. Type of data set: functional, organism-based.
A further data set addresses Collagenase 3 (Homo sapiens, UniProt P45452). Put plainly: Inhibition of MMP13 (unknown origin).

The structures appear in SMILES notation. pIC50: −log10 of the molar value. ≈ marks a conversion by molar mass, not a printed value. Calls of active or inactive are those of the source. The calls are words filed in the database; no cut-off is given here.

For `Cc1cc(COc2ccc(S(=O)(=O)N(C)C3(C(=O)NO)CN(C(=O)C(C)C)C3)cc2)c2ccccc2n1`, the negative-log IC50 (pIC50) – broadly, −log10 of the IC50, conventionally taken in molar units – at Interstitial collagenase was 5.35; in data set [2], 6.02; at Neutrophil collagenase it was 5.59; against Collagenase 3, 5.89. The outcome in the data set on Mus musculus [1] and in the data set with Mus musculus [6] was Active. Also, in [3], the solubility – broadly, the concentration that dissolves in the medium under given conditions – at 24 h was in the range of 56 to 57 mM (≈ 29.5 to 30 mg/mL). In addition, the selectivity ratio in data set [4] stood at 1. For the same molecule, the Activity entry with Mus musculus [5] was “Dose-dependent effect”.

`Cc1cc(COc2ccc(S(=O)(=O)N(C)C3(C(=O)NO)CN(C(=O)CC(C)C)C3)cc2)c2ccccc2n1`: the negative-log IC50 (pIC50) on Interstitial collagenase was 5.34; in data set [2], 5.89; on Neutrophil collagenase, 5.43; at Collagenase 3 it was 5.92. In addition, in data set [3], the concentration in solution (solubility at 24 h) came to 45 mM (≈ 24.3 mg/mL). Further, the selectivity ratio in [4] is 1.

Values taken from ChEMBL document CHEMBL4184149, “Discovery and process development of a novel TACE inhibitor for the topical treatment of psoriasis” (Bioorg Med Chem, 2018).
